{"source": "paper PMC12275099", "about": "“VX-445 (elexacaftor) inhibits chloride secretion across human bronchial epithelial cells by directly blocking KCa3.1 channels” (PNAS Nexus, 2025)", "key": {"[1]": {"target": "T1, endogenous KCa3.1 in WT CFTR-expressing HBEs (Homo sapiens, UniProt O15554)", "T1 construct": "endogenous in cells; host or cells: undifferentiated primary human bronchial epithelial cells (WT CFTR donors)", "assay": "Whole-cell patch-clamp on undifferentiated HBEs", "type": "cell-based", "settings": "VX-445 10 µM; 500 nM free Ca2+ in pipette; n = 3; read-out: inhibition of whole-cell outward potassium current", "description": "(§1) Our Isc results are consistent with VX-445 inhibiting KCa3.1 in HBEs. To directly assess this possibility, we initially carried out whole-cell patch-clamp studies on undifferentiated HBEs. […] Upon application of 10 µM VX-445, a majority of this current was inhibited, averaging 87 ± 4% (n = 3, P < 0.005; Fig. 3B). A summary of the current–voltage (I–V) relationship—normalized to cell capacitance—is shown in Fig. 3C, which also includes the whole-cell I–V in the presence of Tram-34. […] To ensure isolation of KCa3.1 currents and to more fully characterize this VX-445-dependent inhibition of KCa3.1, we utilized HEK cells heterologously expressing KCa3.1 (HEK-KCa3.1). Initially, we confirmed our results from HBEs, using whole-cell recordings, as above. […] In seven experiments, this inhibition averaged 58 ± 7% (P < 0.005). […] It is well recognized that drugs are carried to their targets in the blood bound to albumin, which ranges from 3.4 to 5.4%. Thus, we determined whether VX-445 (10 µM) would inhibit KCa3.1 expressed in HEK cells in the presence of 3.4% albumin. In four experiments, VX-445 inhibited an average of 51 ± 17% of the whole-cell KCa3.1 current, which is not different from that observed in the absence of albumin. To confirm the direct effect of VX-445 on KCa3.1, we utilized the excised, inside-out patch-clamp technique. The patch was then exposed to DCEBIO (100 µM) to further activate the channels ([34–37])—analogous to our Isc studies in HBEs. […] In three experiments, VX-445 inhibited an average of 63 ± 6% of the KCa3.1 current. Based on these experiments, we determined the apparent inhibitory constant, Ki for VX-445. For these experiments, patches were excised into saturating Ca^2+ (3 µM) to ensure maximal KCa3.1 activation. These studies were carried out in the absence of DCEBIO to eliminate the possibility that the inhibition observed was due to competition for the DCEBIO-binding site.\nPrimary human bronchial epithelial cells (HBEs) were collected from unused or discarded samples from the Center for Organ Recovery and Education via the University of Pittsburgh Pulmonary, Allergy, Critical Care, and Sleep Medicine Lung Biobank and Repository. All experimental procedures involving the use of HBEs were approved by the institutional review board (IRB STUDY19090084) and the Committee for Oversight of Research and Clinical Training Involving Decedents (CORID number 451) at the University of Pittsburgh. At all times, authors were blind to the identity of HBE donors. HBEs were cultured using the Vertex method ([72]). Studies were carried out on WT CFTR HBEs from 11 ([13]) donors and homozygous F508del/F508del CFTR HBEs from five ([5]) separate donors. […]"}, "KCa3.1": {"target": "T2, KCa3.1 (Homo sapiens, UniProt O15554)", "T2 construct": "expressed in transfected cells", "assay": "Whole-cell patch-clamp on HEK cells heterologously expressing KCa3.1", "type": "cell-based", "settings": "HEK293, VX-445 10 µM", "description": "as §1\nHEK cells stably expressing KCa3.1 (IK1, SK4), KCa2.3 (SK3), and KCa2.2 (SK2) were generated and cultured as previously described by us ([37], [66–71]).\nHEK cells expressing the channel of interest were plated onto poly-L-lysine-coated glass coverslips 1–2 days prior to patch-clamp analysis. Electrophysiological recordings in the excised, inside-out, and whole-cell patch-clamp configurations were performed as recently described ([14]). For excised patch-clamp recordings, the pipette solution contained (in mM): 140 K-gluconate, 5 KCl, 1 CaCl2, 1 MgCl2, and 10 HEPES. The pH was adjusted to 7.2 with KOH. The bath solution contained (in mM): 145 K-gluconate, 5 KCl, 1.3 MgCl2, 10 HEPES, and 1 EGTA. Sufficient CaCl2 was added to obtain the desired free Ca^2+ concentration at a pH of 7.2 (adjusted with KOH). When recording KCa3.1 channels, ATP (300 µM) was added to the bath to diminish channel rundown ([73]). All recordings were carried out at a voltage of −100 mV, referenced to the extracellular compartment, as is standard. The apparent Ki and Hill coefficient for each CFTR corrector on KCa3.1, KCa2.3, and KCa2.2 were determined during a continuous recording by step-wise addition of increasing concentrations of compound and fitting the resultant relative remaining current to a Hill equation (Prism v. 10.1.0). The zero current level was determined by the addition of a 0 Ca^2+ solution (zero-added Ca^2+ plus 1 mM EGTA) at the end of the experiment. In the case of KCa3.1, TRAM-34, a known inhibitor of KCa3.1 ([45]), was used to confirm expression of the channel. For whole-cell experiments, pipettes contained (in mM): 145 K-gluconate, 10 EGTA, 7.5 CaCl2, 2 MgCl2, 3 mM NaATP, and 10 HEPES. The bath solution contained (in mM): 140 K-gluconate, 5 KCl, 1.0 MgCl2, 10 HEPES, and 2 CaCl2. Current–voltage relationships were determined by stepping from a holding potential of −80 mV to +80 mV in 20 mV increments for 400 ms. […]"}}, "note": "Where two headings read alike, the source gives them in different places."}
{"smiles": "Cc1nn(C)cc1S(=O)(=O)NC(=O)c1ccc(-n2ccc(OCC(C)(C)C(F)(F)F)n2)nc1N1C[C@@H](C)CC1(C)C", "note": "[VX-445, elexacaftor]", "values": [{"measurement": "inhibition at 10 µM", "setting": "[1]", "value": "87 ± 4", "unit": "%"}, {"measurement": "inhibition at 10 µM", "setting": "KCa3.1; four experiments, read-out: inhibition of whole-cell KCa3.1 current in the presence of 3.4% albumin", "value": "51 ± 17", "unit": "%"}, {"measurement": "inhibition at 10 µM", "setting": "KCa3.1; seven experiments, read-out: inhibition of whole-cell KCa3.1 current", "value": "58 ± 7", "unit": "%"}]}
